For eight molecules, Ki and melting point results are on record in patent US20110059970A1, “4-PHENYL-1,3-THIAZOLES AND 4-PHENYL-1,3-OXAZOLES DERIVATIVES AS CANNABINOID RECEPTOR LIGANDS” (IPSEN PHARMA S.A.S., priority 2007, published 2011).

Structures can show the parent of a compound that is named as a salt.

The target of the first data set is T1, human CB2 receptors (Homo sapiens, UniProt P34972).
T1 construct: expressed in transfected cells; membranes prepared from them
T1 sequence (P34972 whole entry): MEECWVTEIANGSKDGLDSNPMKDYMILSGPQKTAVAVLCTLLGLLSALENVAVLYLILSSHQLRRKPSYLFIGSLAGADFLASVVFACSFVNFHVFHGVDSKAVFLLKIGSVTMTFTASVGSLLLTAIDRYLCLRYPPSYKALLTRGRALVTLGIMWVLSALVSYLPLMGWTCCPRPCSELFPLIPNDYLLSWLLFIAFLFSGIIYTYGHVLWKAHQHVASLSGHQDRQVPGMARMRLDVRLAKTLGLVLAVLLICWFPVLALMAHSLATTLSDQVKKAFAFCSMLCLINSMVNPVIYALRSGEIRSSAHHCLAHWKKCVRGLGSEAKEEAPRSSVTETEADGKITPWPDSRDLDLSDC
Briefly: Affinity for human CB2 receptors: inhibition of [3H]-CP55940 binding to membranes of transfected CHO-K1 cells. The note with it: [3H]-CP55940 (1 nM) competition, CHO-K1 membranes; IC50 converted to Ki by Cheng-Prusoff; read-out: affinity for the CB2 receptor. The protocol:
Study of the Affinity of the Compounds for Human Cannabinoid CB2 Receptors
The affinity of the compounds of the invention for human CB2 receptors was determined by measuring inhibition of [^3H]-CP55940 binding to membrane preparations produced from transfected CHO-K1 cells.
CHO-K1 cells stably expressing human CB2 receptors were cultured in RPMI 1640 medium supplemented with 10% foetal calf serum, 2 mM glutamine, 100 U/ml penicillin, 0.1 mg/ml streptomycin and 0.5 mg/ml G418. The cells were collected using 0.5 mM EDTA and centrifuged at 500 g for 5 min at 4° C. The cell pellet was resuspended in phosphate buffered saline (PBS) and centrifuged at 500 g for 5 min at 4° C. The pellet was resuspended in 50 mM tris buffer pH 7.4 and centrifuged at 500 g for 5 min at 4° C. The cells were lysed by sonication and centrifuged at 39,000 g for 10 min at 4° C. The pellet was resuspended in 50 mM tris buffer pH 7.4 and centrifuged at 50,000 g for 10 min at 4° C. The membranes obtained in this final pellet were stored at −80° C.
Competitive inhibition of the binding of [^3H]-CP55940 to CB2 receptors was determined in duplicate in 96-well polypropylene plates. Cell membranes (10 μg of protein/well) were incubated with [^3H]-CP55940 (1 nM) for 60 min at 25° C. in 50 mM Tris-HCl buffer, pH 7.4, containing 0.1% bovine serum albumin (BSA), 5 mM MgCl2, and 50 μg/ml of bacitracin.
Bound [^3H]-CP55940 was separated from free [^3H]-CP55940 by filtration through GF/C fibre glass filter plates (Unifilter, Packard) pre-impregnated with 0.1% polyethylenimine (P.E.I.), using a Filtermate 196 (Packard). The filters were washed with 50 mM Tris-HCl buffer, pH 7.4 at 0-4° C. and the radioactivity present was determined using a counter (Packard Top Count).
Specific binding was obtained by subtracting non-specific binding (determined in the presence of 0.1 μM WIN55212-2) from total binding. The data were analysed by computer-assisted nonlinear regression (MDL). For each test, the IC50 value was converted to a Ki value (inhibition constant) using the Cheng-Prusoff equation.
where [L] is the concentration of the radioligand used in the assay and Kd is the dissociation constant of the radioligand at equilibrium.
`CC(C)(C)c1cc(-c2csc(C3(N)CCSCC3)n2)cc(C(C)(C)C)c1O` [Example 5, 4-[2-(4-aminotetrahydro-2H-thiopyran-4-yl)-1,3-thiazol-4-yl]-2,6-di-tert-butylphenol]: the Ki lay within 0.5 to 1 µM.

Test system in a further data set: not given
Test: not given
Settings: not given
Regarding `CN(C)C1(c2nc(-c3ccc(Oc4ccccc4)cc3)cs2)CCOCC1` (as salt: hydrochloride) [Example 16, N,N-dimethyl-4-[4-(4-phenoxyphenyl)-1,3-thiazol-2-yl]tetrahydro-2H-pyran-4-amine hydrochloride], the melting point (as a rule, the temperature, or range, at which the solid turns liquid) was in the range of 213 to 223.2 °C.

Regarding `CN1CCC(c2nc(-c3cc(C(C)(C)C)c(O)c(C(C)(C)C)c3)cs2)(N(C)C)CC1` (as salt: hydrochloride) [Example 23, 2,6-di-tert-butyl-4-{2-[4-(dimethylamino)-1-methylpiperidin-4-yl]-1,3-thiazol-4-yl}phenol hydrochloride], the melting point was in the range of 236 to 238 °C.

In the case of `CN(C)C1(c2nc(-c3ccc(Cc4ccccc4)cc3)cs2)CCOCC1` (as salt: hydrochloride) [Example 29, {4-[4-(4-benzylphenyl)-1,3-thiazol-2-yl]tetrahydro-2H-pyran-4-yl}dimethylamine hydrochloride], the melting point lay within 228.4 to 229.5 °C.

In the case of `CN(C)C1(c2nc(-c3ccc(Oc4ccc([N+](=O)[O-])cc4)cc3)cs2)CCOCC1` (as salt: hydrochloride) [Example 32, N,N-dimethyl-4-{4-[4-(4-nitrophenoxy)phenyl]-1,3-thiazol-2-yl}tetrahydro-2H-pyran-4-amine hydrochloride], the melting point is 167 to 169 °C.

The molecule `CN(C)C1(c2nc(-c3ccc(Sc4ccccc4)cc3)cs2)CCOCC1` (as salt: hydrochloride) [Example 33, N,N-dimethyl-4-{4-[4-(phenylthio)phenyl]-1,3-thiazol-2-yl}tetrahydro-2H-pyran-4-amine hydrochloride] registered a melting point of 215 to 218.8 °C.

Molecule `COc1c(C(C)(C)C)cc(-c2csc(C3(N)CCOCC3)n2)cc1C(C)(C)C` [Example 1, {4-[4-(3,5-di-tert-butyl-4-methoxyphenyl)-1,3-thiazol-2-yl]tetrahydro-2H-pyran-4-yl}amine] returned a melting point of 128.4 to 129.7 °C.

In the case of `CC(C)(C)c1cc(-c2csc(C3(N)CCSCC3)n2)cc(C(C)(C)C)c1O` [Example 5, 4-[2-(4-aminotetrahydro-2H-thiopyran-4-yl)-1,3-thiazol-4-yl]-2,6-di-tert-butylphenol], the melting point lay within 148.8 to 150.8 °C.

Molecule `CC(C)(C)c1cc(-c2csc(C3(N)CCOCC3)n2)cc(C(C)(C)C)c1` [Example 10, {4-[4-(3,5-di-tert-butylphenyl)-1,3-thiazol-2-yl]tetrahydro-2H-pyran-4-yl}amine] yielded a melting point of 114 to 114.4 °C.
